Assay in all cases: Kinase profiling
What all share (type): biochemical

The target of one assay is T1, ASK1 (Homo sapiens, UniProt Q99683).
T1 construct: purchased ProQinase (Freiburg, Germany)
T1 sequence (Q99683 1-1374): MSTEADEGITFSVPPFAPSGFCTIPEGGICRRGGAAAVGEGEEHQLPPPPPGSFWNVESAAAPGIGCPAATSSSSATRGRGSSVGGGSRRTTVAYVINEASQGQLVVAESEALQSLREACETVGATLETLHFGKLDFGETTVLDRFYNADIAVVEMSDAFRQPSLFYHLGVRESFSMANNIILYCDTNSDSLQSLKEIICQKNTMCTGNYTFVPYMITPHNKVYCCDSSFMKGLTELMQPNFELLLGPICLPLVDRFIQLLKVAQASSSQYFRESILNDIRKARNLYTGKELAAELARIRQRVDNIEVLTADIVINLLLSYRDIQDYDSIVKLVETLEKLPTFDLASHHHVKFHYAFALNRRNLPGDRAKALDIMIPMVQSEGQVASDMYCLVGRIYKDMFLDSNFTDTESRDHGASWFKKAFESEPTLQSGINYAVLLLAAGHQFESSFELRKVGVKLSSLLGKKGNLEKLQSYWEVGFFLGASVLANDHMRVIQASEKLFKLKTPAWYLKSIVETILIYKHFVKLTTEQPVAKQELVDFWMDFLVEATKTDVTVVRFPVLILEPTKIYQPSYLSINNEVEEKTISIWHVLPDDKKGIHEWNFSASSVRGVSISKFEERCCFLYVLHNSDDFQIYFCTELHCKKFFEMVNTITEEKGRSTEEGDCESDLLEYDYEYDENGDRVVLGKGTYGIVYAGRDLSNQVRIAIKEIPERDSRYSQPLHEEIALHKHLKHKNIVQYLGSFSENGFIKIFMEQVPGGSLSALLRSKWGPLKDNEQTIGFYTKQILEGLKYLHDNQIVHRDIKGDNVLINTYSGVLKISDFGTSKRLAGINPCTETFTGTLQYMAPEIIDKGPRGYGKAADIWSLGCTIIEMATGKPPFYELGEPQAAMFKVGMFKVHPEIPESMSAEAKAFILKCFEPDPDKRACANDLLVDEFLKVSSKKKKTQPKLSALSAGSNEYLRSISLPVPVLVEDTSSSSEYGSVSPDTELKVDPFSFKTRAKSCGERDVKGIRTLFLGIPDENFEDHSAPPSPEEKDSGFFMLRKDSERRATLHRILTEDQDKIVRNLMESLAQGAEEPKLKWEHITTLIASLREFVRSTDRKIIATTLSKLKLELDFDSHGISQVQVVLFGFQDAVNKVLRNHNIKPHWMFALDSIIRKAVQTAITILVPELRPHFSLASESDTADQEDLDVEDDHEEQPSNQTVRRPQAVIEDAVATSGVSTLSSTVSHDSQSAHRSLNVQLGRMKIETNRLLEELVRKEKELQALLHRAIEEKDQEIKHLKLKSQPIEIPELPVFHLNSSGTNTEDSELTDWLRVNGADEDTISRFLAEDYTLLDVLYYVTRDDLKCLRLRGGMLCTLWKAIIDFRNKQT
On the procedure:
(§1) The analysis was performed by ProQinase (Freiburg, Germany).

In a further assay the target is T2, GSG2 (Homo sapiens, UniProt Q8TF76).
T2 construct: purchased ProQinase (Freiburg, Germany)
T2 sequence (Q8TF76 1-798): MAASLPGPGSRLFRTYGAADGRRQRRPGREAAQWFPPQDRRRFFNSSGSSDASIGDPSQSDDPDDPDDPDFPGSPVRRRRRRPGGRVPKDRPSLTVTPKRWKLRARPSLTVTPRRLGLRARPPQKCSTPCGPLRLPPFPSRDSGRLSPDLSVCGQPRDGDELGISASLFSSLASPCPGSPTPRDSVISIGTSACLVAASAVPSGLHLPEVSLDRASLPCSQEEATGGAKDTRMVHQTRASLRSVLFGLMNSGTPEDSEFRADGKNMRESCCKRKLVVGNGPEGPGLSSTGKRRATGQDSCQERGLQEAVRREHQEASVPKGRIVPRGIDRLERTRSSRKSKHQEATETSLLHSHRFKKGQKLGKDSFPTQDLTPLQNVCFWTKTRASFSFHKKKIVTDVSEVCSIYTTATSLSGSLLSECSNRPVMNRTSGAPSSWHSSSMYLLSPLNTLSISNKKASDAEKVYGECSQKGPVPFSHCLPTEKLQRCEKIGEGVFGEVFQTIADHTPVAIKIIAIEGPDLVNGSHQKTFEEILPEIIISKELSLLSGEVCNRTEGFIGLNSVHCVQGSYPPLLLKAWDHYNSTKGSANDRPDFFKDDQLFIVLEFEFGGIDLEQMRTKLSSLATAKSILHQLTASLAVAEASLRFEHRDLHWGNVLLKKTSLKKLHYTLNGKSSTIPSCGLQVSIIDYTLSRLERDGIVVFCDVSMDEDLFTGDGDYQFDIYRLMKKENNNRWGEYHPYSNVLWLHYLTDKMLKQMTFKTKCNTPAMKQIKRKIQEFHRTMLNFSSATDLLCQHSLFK
The protocol:
as §1

Another assay has as its target T3, TYRO3 (Homo sapiens, UniProt Q06418).
T3 construct: purchased ProQinase (Freiburg, Germany)
T3 sequence (Q06418 41-890): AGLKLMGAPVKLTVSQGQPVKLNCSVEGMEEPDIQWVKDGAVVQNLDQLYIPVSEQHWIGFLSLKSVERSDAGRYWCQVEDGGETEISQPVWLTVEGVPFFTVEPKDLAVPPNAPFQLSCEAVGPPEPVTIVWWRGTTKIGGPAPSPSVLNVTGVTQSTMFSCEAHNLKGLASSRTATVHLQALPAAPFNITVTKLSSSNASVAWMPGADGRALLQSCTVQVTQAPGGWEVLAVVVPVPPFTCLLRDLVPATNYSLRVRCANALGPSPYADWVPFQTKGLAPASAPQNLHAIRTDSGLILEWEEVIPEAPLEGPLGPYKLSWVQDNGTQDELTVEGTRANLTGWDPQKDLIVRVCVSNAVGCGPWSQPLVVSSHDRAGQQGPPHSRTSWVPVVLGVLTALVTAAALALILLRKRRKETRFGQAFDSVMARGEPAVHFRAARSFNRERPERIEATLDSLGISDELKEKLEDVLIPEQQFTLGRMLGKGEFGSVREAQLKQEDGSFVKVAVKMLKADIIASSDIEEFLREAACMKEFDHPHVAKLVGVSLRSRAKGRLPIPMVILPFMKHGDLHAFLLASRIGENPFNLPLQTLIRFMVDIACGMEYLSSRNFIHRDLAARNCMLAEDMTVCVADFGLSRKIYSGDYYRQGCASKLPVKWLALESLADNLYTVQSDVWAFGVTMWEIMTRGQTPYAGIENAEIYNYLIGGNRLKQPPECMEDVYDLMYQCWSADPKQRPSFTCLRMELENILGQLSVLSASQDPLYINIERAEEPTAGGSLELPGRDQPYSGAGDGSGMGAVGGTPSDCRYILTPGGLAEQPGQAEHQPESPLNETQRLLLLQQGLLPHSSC
The protocol:
as §1

Consider `O=C(Cc1ccccc1)Nc1ccc(F)c(Nc2ccc3c(c2)CCCCC3=O)c1` [Compound 100], for which the Residual activity at ASK1 (1.0E-05 M) is 85 % of control; on ASK1 (1.0E-06 M), 87 % of control; at GSG2 (1.0E-05 M), 78 % of control; on GSG2 (1.0E-06 M), 92 % of control; on TYRO3 (1.0E-05 M), 77 % of control; on TYRO3 (1.0E-06 M), 96 % of control.

Take `O=C(Nc1ccc(F)c(Nc2ccc3c(c2)CCCCC3=O)c1)c1cccc(F)c1` [Compound 109]: the Residual activity is listed as 88 % of control on ASK1 (1.0E-05 M); 87 % of control at ASK1 (1.0E-06 M); 68 % of control at GSG2 (1.0E-05 M); 93 % of control on GSG2 (1.0E-06 M); 92 % of control on TYRO3 (1.0E-05 M); 104 % of control on TYRO3 (1.0E-06 M).

These data come from article PMC9030254, “Target Hopping from Protein Kinases to PXR: Identification of Small-Molecule Protein Kinase Inhibitors as Selective Modulators of Pregnane X Receptor from TüKIC Library” (Cells, 2022).
